Experiment [1] deals with T1, PTGER4 (EP4) (Homo sapiens, UniProt P35408).
T1 construct: host or cells: HEK 293 (PathHunter PTGER4 b-arrestin cell line)
As to the kind of experiment: hEP4 b-arrestin assay (PathHunter HEK 293 PTGER4 b-arrestin cells). To be noted: antagonistic activity, beta-arrestin assay; read-out: hEP4 b-arr IC50. The experiment is classed as cell-based. In short, it runs like this: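 PathHunter HEK 293 cells expressing ProLink-tagged human EP4 and EA-β-arrestin 2, seeded 24 h before. Compounds (10 μM–2 nM or 1 μM–0.2 nM) preincubated 15 min at 37 °C, then 20 nM PGE2 (EC80) for 120 min at 37 °C. β-gal complementation luminescence read; IC50 from duplicate dose-response curves versus DMSO control.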

Experiment [2] concerns the target T2, PTGER2 (EP2) (Homo sapiens, UniProt P43116).
T2 construct: host or cells: HEK 293 (PathHunter PTGER2 b-arrestin cell line)
As to the kind of experiment: hEP2 b-arrestin assay (PathHunter HEK 293 PTGER2 b-arrestin cells). The experiment is classed as cell-based. To be noted: antagonistic activity, beta-arrestin assay; read-out: hEP2 b-arr IC50. In short, it runs like this: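 PathHunter HEK293 cells with ProLink-tagged EP2 and EA-β-arrestin 2 preincubated 15 min at 37 °C with compound (10 μM-2 nM or 1 μM-0.2 nM), then stimulated 120 min with 5 μM PGE2 (EC80). β-gal complementation read by chemiluminescence; IC50 from duplicate dose-response versus DMSO.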

T1 sequence (P35408 whole entry): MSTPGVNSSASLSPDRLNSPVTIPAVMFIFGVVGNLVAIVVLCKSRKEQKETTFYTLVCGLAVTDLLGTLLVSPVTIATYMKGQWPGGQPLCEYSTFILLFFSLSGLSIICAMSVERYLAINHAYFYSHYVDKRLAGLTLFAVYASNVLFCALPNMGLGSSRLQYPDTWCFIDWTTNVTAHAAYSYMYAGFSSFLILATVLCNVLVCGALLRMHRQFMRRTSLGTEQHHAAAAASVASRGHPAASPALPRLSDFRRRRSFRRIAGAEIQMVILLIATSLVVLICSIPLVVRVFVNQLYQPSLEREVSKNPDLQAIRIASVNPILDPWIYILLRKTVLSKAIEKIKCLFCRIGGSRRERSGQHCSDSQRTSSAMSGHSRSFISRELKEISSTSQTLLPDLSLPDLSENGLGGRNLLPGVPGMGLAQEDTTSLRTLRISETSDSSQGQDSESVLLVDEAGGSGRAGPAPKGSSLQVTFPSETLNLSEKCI
T2 sequence (P43116 whole entry): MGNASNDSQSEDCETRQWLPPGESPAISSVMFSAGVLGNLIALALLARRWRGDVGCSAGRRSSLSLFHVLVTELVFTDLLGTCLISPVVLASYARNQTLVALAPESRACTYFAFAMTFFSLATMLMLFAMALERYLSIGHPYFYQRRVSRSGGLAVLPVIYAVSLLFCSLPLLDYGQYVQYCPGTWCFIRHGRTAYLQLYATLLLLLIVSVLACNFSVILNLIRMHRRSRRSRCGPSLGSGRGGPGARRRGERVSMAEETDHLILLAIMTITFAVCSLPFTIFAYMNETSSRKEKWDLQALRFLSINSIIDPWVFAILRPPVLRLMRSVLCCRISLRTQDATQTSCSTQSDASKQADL

For `Cc1cc(-c2cc(NCCc3c(C)oc4c(C)cc(F)cc34)ncn2)sc1C(=O)O` [Example 2, 5-{6-[2-(5-Fluoro-2,7-dimethyl-benzofuran-3-yl)-ethylamino]-pyrimidin-4-yl}-3-methyl-thiophene-2-carboxylic acid], the half-inhibitory concentration (IC50) in experiment [1] stood at 189 nM; in experiment [2], 25 nM.

Turning to `Cc1cc(-c2cc(NCCc3c(C)sc4c(C)cccc34)ncn2)sc1C(=O)O` [Example 3, 5-{6-[2-(2,7-Dimethyl-benzo[b]thiophen-3-yl)-ethylamino]-pyrimidin-4-yl}-3-methyl-thiophene-2-carboxylic acid], the IC50 in experiment [1] is 202 nM; in experiment [2] it was 18 nM.

In the case of `Cc1cc(-c2cc(NCCc3c(C)oc4c(C)cc(Cl)cc34)ncn2)sc1C(=O)O` [Example 4, 5-{6-[2-(5-Chloro-2,7-dimethyl-benzofuran-3-yl)-ethylamino]-pyrimidin-4-yl}-3-methyl-thiophene-2-carboxylic acid], the results for the IC50 in experiment [1] and in experiment [2] were 262 nM and 11 nM, respectively.

For the compound `CSc1cc(-c2cc(NCCc3c(C)sc4c(C)cccc34)ncn2)ccc1C(=O)O` [Example 14, 4-{6-[2-(2,7-Dimethyl-benzo[b]thiophen-3-yl)-ethylamino]-pyrimidin-4-yl}-2-methylsulfanyl-benzoic acid], the figures for the IC50 in experiment [1] and in experiment [2] were 195 nM and 4 nM, respectively.

`COc1ccc(Cl)c2c(CCNc3cc(-c4ccc(C(=O)O)c(SC)c4)ncn3)c(C)sc12` [Example 15, 4-{6-[2-(4-Chloro-7-methoxy-2-methyl-benzo[b]thiophen-3-yl)-ethylamino]-pyrimidin-4-yl}-2-methylsulfanyl-benzoic acid]: the IC50 was determined as 168 nM in experiment [1] and 6 nM in experiment [2].

For `CSc1cc(-c2cc(NCCc3c(C)oc4c(C)cc(F)cc34)ncn2)ccc1C(=O)O` [Example 16, 4-{6-[2-(5-Fluoro-2,7-dimethyl-benzofuran-3-yl)-ethylamino]-pyrimidin-4-yl}-2-methylsulfanyl-benzoic acid], the IC50 amounted to 391 nM in experiment [1] and 13 nM in experiment [2].

For the compound `CSc1cc(-c2cc(NCCc3c(C)sc4c(C)cc(F)cc34)ncn2)ccc1C(=O)O` [Example 17, 4-{6-[2-(5-Fluoro-2,7-dimethyl-benzo[b]thiophen-3-yl)-ethylamino]-pyrimidin-4-yl}-2-methylsulfanyl-benzoic acid], the half-maximal inhibitory concentration (IC50) in experiment [1] was 248 nM; in experiment [2] it was 5 nM.

In the case of `CSc1cc(-c2cc(NCCc3c(C)oc4ccccc34)ncn2)ccc1C(=O)O` [Example 18, 4-{6-[2-(2-Methyl-benzofuran-3-yl)-ethylamino]-pyrimidin-4-yl}-2-methylsulfanyl-benzoic acid], the IC50 stood at 1200 nM in experiment [1] and 1 nM in experiment [2].

As for `CSc1cc(-c2cc(NCCc3c(C)sc4c(C)ccc(Cl)c34)ncn2)ccc1C(=O)O` [Example 19, 4-{6-[2-(4-Chloro-2,7-dimethyl-benzo[b]thiophen-3-yl)-ethylamino]-pyrimidin-4-yl}-2-methylsulfanyl-benzoic acid], the IC50 in experiment [1] was 414 nM; in experiment [2], 12 nM.

Regarding `CSc1cc(-c2cc(NCCc3c(C)sc4c(Cl)ccc(Cl)c34)ncn2)ccc1C(=O)O` [Example 20, 4-{6-[2-(4,7-Dichloro-2-methyl-benzo[b]thiophen-3-yl)-ethylamino]-pyrimidin-4-yl}-2-methylsulfanyl-benzoic acid], the IC50 in experiment [1] was found to be 762 nM; in experiment [2], 30 nM.

As for `CSc1cc(-c2cc(NCCc3c(C)sc4c(C)c(F)ccc34)ncn2)ccc1C(=O)O` [Example 21, 4-{6-[2-(6-Fluoro-2,7-dimethyl-benzo[b]thiophen-3-yl)-ethylamino]-pyrimidin-4-yl}-2-methylsulfanyl-benzoic acid], the IC50 in experiment [1] was 283 nM; in experiment [2] it was 4 nM.

`CCc1oc2c(C)cc(F)cc2c1CCNc1cc(-c2ccc(C(=O)O)c(SC)c2)ncn1` [Example 22, 4-{6-[2-(2-Ethyl-5-fluoro-7-methyl-benzofuran-3-yl)-ethylamino]-pyrimidin-4-yl}-2-methylsulfanyl-benzoic acid]: the figures for the IC50 in experiment [1] and in experiment [2] were 493 nM and 101 nM, respectively.

`CSc1cc(-c2cc(NCCc3c(C)sc4c(Cl)cc(F)cc34)ncn2)ccc1C(=O)O` [Example 23, 4-{6-[2-(7-Chloro-5-fluoro-2-methyl-benzo[b]thiophen-3-yl)-ethylamino]-pyrimidin-4-yl}-2-methylsulfanyl-benzoic acid]: the IC50 in experiment [1] amounted to 488 nM; in experiment [2] it was 9 nM.

On to `CSc1cc(-c2cc(NCCc3c(C)sc4ccccc34)ncn2)ccc1C(=O)O` [Example 24, 4-{6-[2-(2-Methyl-benzo[b]thiophen-3-yl)-ethylamino]-pyrimidin-4-yl}-2-methylsulfanyl-benzoic acid], for which the figures for the IC50 in experiment [1] and in experiment [2] were 3420 nM and 3 nM, respectively.

`CCOc1cc(-c2cc(NCCc3c(C)sc4c(C)ccc(F)c34)ncn2)sc1C(=O)O` [Example 25, 3-Ethoxy-5-{6-[2-(4-fluoro-2,7-dimethyl-benzo[b]thiophen-3-yl)-ethylamino]-pyrimidin-4-yl}-thiophene-2-carboxylic acid]: the IC50 in experiment [1] is 7 nM; in experiment [2] it was 2 nM.

`CCOc1cc(-c2cc(NCCc3c(C)sc4c(OC)ccc(F)c34)ncn2)sc1C(=O)O` [Example 28, 3-Ethoxy-5-{6-[2-(4-fluoro-7-methoxy-2-methyl-benzo[b]thiophen-3-yl)-ethylamino]-pyrimidin-4-yl}-thiophene-2-carboxylic acid]: the IC50 turned out to be 5 nM in experiment [1] and 2 nM in experiment [2].

For the compound `CCOc1cc(-c2cc(NCCc3c(C)sc4c(C)ccc(Cl)c34)ncn2)sc1C(=O)O` [Example 29, 5-{6-[2-(4-Chloro-2,7-dimethyl-benzo[b]thiophen-3-yl)-ethylamino]-pyrimidin-4-yl}-3-ethoxy-thiophene-2-carboxylic acid], the IC50 in experiment [1] turned out to be 25 nM; in experiment [2], 14 nM.

For `CCOc1cc(-c2cc(NCCc3c(C)sc4c(OC)ccc(Cl)c34)ncn2)sc1C(=O)O` [Example 30, 5-{6-[2-(4-Chloro-7-methoxy-2-methyl-benzo[b]thiophen-3-yl)-ethylamino]-pyrimidin-4-yl}-3-ethoxy-thiophene-2-carboxylic acid], the IC50 was found to be 18 nM in experiment [1] and 10 nM in experiment [2].

For the compound `CCOc1cc(-c2cc(NCCc3c(C)oc4c(OC)cc(F)c(F)c34)ncn2)sc1C(=O)O` [Example 31, 5-{6-[2-(4,5-Difluoro-7-methoxy-2-methyl-benzofuran-3-yl)-ethylamino]-pyrimidin-4-yl}-3-ethoxy-thiophene-2-carboxylic acid], the values for the IC50 in experiment [1] and in experiment [2] were 27 nM and 11 nM, respectively.

For `CCOc1cc(-c2cc(NCCc3c(C)sc4c(C)cc(F)cc34)ncn2)sc1C(=O)O` [Example 32, 3-Ethoxy-5-{6-[2-(5-fluoro-2,7-dimethyl-benzo[b]thiophen-3-yl)-ethylamino]-pyrimidin-4-yl}-thiophene-2-carboxylic acid], the IC50 in experiment [1] was 16 nM; in experiment [2], 2 nM.

In the case of `CCOc1cc(-c2cc(NCCc3csc4ccccc34)ncn2)sc1C(=O)O` [Example 33, 5-[6-(2-Benzo[b]thiophen-3-yl-ethylamino)-pyrimidin-4-yl]-3-ethoxy-thiophene-2-carboxylic acid], the IC50 in experiment [1] worked out at 168 nM; in experiment [2], 19 nM.

For orientation: IC50 means the concentration that inhibits the measured activity by half.
